Data as given in patent US12303594B2, “Antimicrobial and anti-inflammatory compositions” (The Texas A&M University System, priority 2015, dated 2025).
≈ marks a conversion by molar mass, not a printed value.

Experiments:
[1] = Particle size distribution by laser light diffraction; type: physicochemical
Procedure: The particle size distribution (PSD) D10, D50, and D90 values for each sample were defined as particle diameters at the 10th, 50th, and 90th percentile and the span value was calculated according to Equation 2: […]
PSD analysis by laser light diffraction: PSDs were determined using a Sympatec Helos equipped with a Cuvette module (System-Partikel-Technik GmbH, Clausthal-Zellerfeld, Germany). Data were analyzed using the Sympatec WINDOX software. For each measurement, per a previously optimized method, about 2 mg of powder was dispersed in 0.5 mL of 0.1% (w/v) sodium dodecyl sulfate in water and the sample was sonicated for 5 min. […] After the reference measurement, 50 μL aliquots of the sonicated suspension were added to the cell to achieve optical concentrations of between 10 to 20% and the total of six measurements were performed on each sample. Formulations immediately following air-jet milling (25IBU10.1, 25IBU10.2) and after 6 months (25IBU10.1**, 25IBU10.2**) stored at RT (IBU10.1), or at −80° C. (IBU10.2) were analyzed.
PSDs were determined using a Sympatec Helos equipped with a Cuvette module (System-Partikel-Technik GmbH, Clausthal-Zellerfeld, Germany). Data were analyzed using the Sympatec WINDOX software. For each measurement per a previously optimized method, about 2 mg of powder was dispersed in 0.5 mL of 0.1% (w/v) SLS in water and the sample was sonicated for 5 minutes. […] After the reference measurement, 50 μL aliquots of the sonicated suspension were added to the cell to achieve optical concentrations of between 10 to 20% and the total of six measurements were performed on each sample. Analyzed samples included: unprocessed IBU and IND as well as the milled samples from different sections of the jet mill including the tube after grinding chamber (bfC), the cyclone (C), the collection vessel adapter (D), the collection bag adapter (E), the collection vessel (G) and the collection bag (H) for each run. The span value was calculated according to Equation 2.
To estimate the overall D10, D50, and D90 values for the combined recovered fractions associated with each run, stacked bar charts were graphed and analyzed to determine the yield normalized cumulative PSDs. Each stacked bar corresponded to a particle size bin and its height corresponded to the volume density distributions' weighted averages by the yield for each segment of the jet mill. The D10, D50, and D90 values for the normalized cumulative PSDs were the particle sizes corresponding to the 10, 50, and 90% area of the stacked bar chart respectively.
Tween 20 and sodium lauryl sulfate (SLS) were purchased from Fisher Scientific (Fisher Scientific, Pittsburgh, PA, USA), and dH2O was used for preparing solutions. […] A reference measurement was done in 0.1% (v/v) Span 85 in light mineral oil. After a reference measurement, aliquots of […] of sonicated suspension were added to achieve optical concentrations from 10 to 20% for a total of six measurements.
Furthermore, D10, D50, and D90 values for each sample were defined as particle diameters at the 10th, 50th, and 90th percentile of the PSD. Span was calculated according to Equation 2. Normalized cumulative PSDs were composed of yield-normalized distributions, where they were depicted as stacked bar charts. D10, D50, and D90 values for normalized cumulative PSDs were calculated by approximating particle sizes associated with 10%, 50%, and 90% area of the stacked bar chart.

[2] = Brunauer-Emmett-Teller specific surface area; type: physicochemical; conditions: for SSA: N = 3
Procedure: Brunauer-Emmett-Teller: Surface area (SA) was evaluated via a single-point BET method using a Monosorb® surface area analyzer (Quantrachrome Instruments; FL, USA) following 24 hour outgassing with helium at room temperature (RT) before each measurement in triplicate on a known powder mass (m). SSA was calculated using Equation 3: […]
Brunauer-Emmett-Teller (BET) specific surface area (SSA) measurements were taken. Surface area (SA) was evaluated via a single-point BET method using a Monosorb® surface area analyzer (Quantrachrome Instruments; FL, USA) following 24 hour outgassing with helium at room temperature before each measurement in triplicates. Samples masses (m) were at least 50 mg for the jet-milled powders depending on availability and 500 mg for the unprocessed samples. SSA was calculated according to the following formula: […]

[3] = Bulk and tapped density, compressibility index and Hausner ratio; type: physicochemical
Procedure: In this modified method, a 10 mL graduated cylinder fitted with a molded adapter substituted the 100 mL graduated cylinder in the tapped density tester. The compressibility index (CI) and Hausner ratio (HR) calculations were performed according to the following formulas: The tapped density (rT) calculations were performed using a tapped density tester (Agilent Technologies, Santa Clara, CA, USA) with a modified method from the USP for a small mass of powder. In this modified method, a 10 mL graduated cylinder fitted with a molded adapter substituted the 100 mL graduated cylinder for the calculations of the bulk density (rB) and the use in the tapped density tester. The compressibility index (CI) and the Hausner ratio (HR) calculations were performed according to the following formulas: […]

[4] = system: P. aeruginosa strain PA HP3; test: Disc diffusion assay; type: cell-based, Pseudomonas aeruginosa; conditions: MH agar with 100 μg/mL ibuprofen vs MH agar control
Procedure: A method for disc diffusion assay includes the following: The activity of five antibiotics (amikacin, aztreonam, ceftazidime, colistin, and tobramycin) was assessed against three strains of Pseudomonas aeruginosa (PAM57-15, PAO1 and PA HP3) using a disc diffusion assay. A single colony of P. aeruginosa was picked and grown to an optical density at 650 nm (OD650) of 0.4. […] Discs containing known quantities of the five previously mentioned antibiotics were placed on the two types of agar plates and incubated for 18 hours. The diameters of the zones of inhibition were measured and compared between the MH and MH+IBU plates.

[5] = system: Pseudomonas aeruginosa (strain PA HP3); test: Minimum inhibitory concentration (MIC); type: cell-based; conditions: alone
Procedure: (§1) The final concentrations of aztreonam, ceftazidime and vancomycin were 0.06, 0.13, 0.25, 0.5, 1, 2, 4, 8, 16, 32, 64, and 128 μg/ml. The plates were incubated overnight at 37° C. […] Each triplicate was performed at least twice.

[6] = system: Pseudomonas aeruginosa (strain PA HP3); test: Checkerboard assay with ibuprofen; type: cell-based; conditions: for MIC: Pseudomonas aeruginosa, read-out: MIC (with ibuprofen); for MIC (with ibuprofen): with 50 μg/mL of ibuprofen
[7] = system: PA HP3; test: 24 hour end point colony forming units (CFU) count study; type: cell-based, Pseudomonas aeruginosa; conditions: P<0.0001
Procedure: A 24 hour end point colony forming units (CFU) count study was performed. […] Increasing concentrations of aztreonam and ceftazidime were loaded horizontally into each well of two separate 96-well plates starting with zero at the top of the plate. […] The plates were set on a platform shaker at 100 rpm in a 37° C. warm room for 24 hours. After the 24-hour incubation, each well was diluted by taking 50 μl culture into 450 μl of MH broth. A 50 μl aliquot of each dilution was plated on blood agar. This serial dilution step was repeated seven times for each well to reach countable numbers of colonies on the blood agar plates.

[8] = Helium pycnometry true density; type: physicochemical; conditions: N = 3
Procedure: Helium pycnometry: True densities were measured using an MVP-D160-E multipycnometer (Quantrachrome Instruments; FL, USA) equipped with the micro cell and adapter. Measurements were conducted in triplicates. Before pressure measurements, the multipycnometer was purged with helium gas according to the manufacturer's recommendations.
True densities were measured using a MVP-D160-E multipycnometer (Quantrachrome Instruments; FL, USA). For density measurements, the micro cell and the micro cell adapter were used, and samples weighed at least 0.1 g for the jet-milled powders depending on availability and at least 0.6 g for the unprocessed powders.

[9] = Angle of repose (USP method); type: physicochemical; conditions: N = 3
Procedure: Angle of repose: Angles of repose were measured in triplicate according to the United States Pharmacopoeia (USP) method. Images of the powder mounds were taken using a digital camera and were analyzed using the ImageJ software (Wayne Rasband, Research Services Branch, National Institute of Mental Health, Bethesda, MD, USA). […]

[10] = Karl-Fischer moisture analysis; type: physicochemical; conditions: N = 3
Procedure: Karl-Fischer moisture analysis was performed. The moisture content of the unprocessed and jet-milled powders were measured in triplicates using a Photovolt Aqua-test™ 2010a Moisture Analyser (a.k.a. The CSC Aquapal III, CSC Scientific Inc., Fairfax, VA, USA). Powder moisture contents were calculated by subtracting the moisture content in 1 mL of anhydrous methanol (Fisher Scientific, Pittsburgh, PA, USA) from the moisture content reading from 5 mg powder dissolved in 1 mL of anhydrous methanol.

[11] = system: methicillin-resistant Staphylococcus aureus (strain MRSA 0646); test: Minimum inhibitory concentration (MIC); type: cell-based
Procedure: as §1

[12] = system: methicillin-resistant Staphylococcus aureus (strain MRSA 0646); test: Checkerboard assay with ibuprofen
Procedure: A method for checkerboard assay includes the following: The bacteria were diluted in the standard MH broth to a concentration of 5×10^5 in 100 μL, which was added to each well of a 96-well plate. Aztreonam, ceftazidime and vancomycin solutions were prepared from 10 mg/mL stocks in MH broth. […] The plates were incubated and read as noted for the MIC assay. Again, each triplicate was performed at least twice.
Interaction are defined as synergistic if the FIC index is <1, additive if the FIC index is =1 and antagonistic if the FIC index is >1.

[13] = collection bag fraction or stock, Table 8
[14] = fraction used for testing (IBU collection bag, IND cyclone) or unprocessed powder
[15] = collection bag from jet-milled DFNa, cyclone from jet-milled DF
[16] = normalized cumulative particle size distribution of jet-milled powder

Structure (SMILES)	diameters of the zones of inhibition [4]	MIC [5] [µg/mL]	MIC [6] [µg/mL]	MIC (with ibuprofen) [6]	D10 [1, 15] [μm]	D90 [1, 15] [μm]	Span [1, 15]	D10 [1, 16] [μm]	D90 [1, 16] [μm]	Span [1, 16]	D10 ([1]; unprocessed) [μm]	D90 ([1]; unprocessed) [μm]	Span ([1]; unprocessed)	SSA [2] [m^2/g]	ρ (true density) [8] [g/mL]	CI [3]	HR [3]	ρT (tapped density) [3] [g/mL]	ρβ (bulk density) [3] [g/mL]	Angle of Repose [9] [°]	also measured
COc1ccc2c(c1)c(CC(=O)O)c(C)n2C(=O)c1ccc(Cl)cc1 [unprocessed indomethacin, indomethacin]	–	–	–	–	–	–	–	–	–	–	–	–	–	–	–	–	–	–	–	–	D50 [1, 13]: 26.3 μm; D90 [1, 13]: 64.8 μm; Span [1, 13]: 2.3; Span [1, 14]: 2.25; median size (d50) [1, 14]: 26.3 μm; surface area [2]: 0.435±0.039 m^2/g; Compressibility Index (CI) [3]: 44.7; Hausner Ratio (HR) [3]: 1.81; bulk density [3]: 0.321 g/mL; tap density [3]: 0.580 g/mL
C[C@H]1[C@H](NC(=O)/C(=N\OC(C)(C)C(=O)O)c2csc(N)n2)C(=O)N1S(=O)(=O)O [Aztreonam, aztreonam]	significantly increased	4 (≈ 9.19 µM)	2	2 (50) μg/mL	–	–	–	–	–	–	–	–	–	–	–	–	–	–	–	–	CFU counts ([7]; 1 μg/mL aztreonam with 50 or 100 μg/mL ibuprofen vs aztreonam alone): decreased significantly
O=C(O)Cc1ccccc1Nc1c(Cl)cccc1Cl [DFNa, diclofenac sodium]	–	–	–	–	1.06	5.52	1.64	1.29	6.53	1.61	2.02	42.69	2.08	1.37 ± 0.20	1.51 ± 0.00	45.24	1.83	0.69	0.38	48.7 ± 5.5	Moisture content [10]: 1.88 ± 0.20%
CN[C@H](CC(C)C)C(=O)N[C@H]1C(=O)N[C@@H](CC(N)=O)C(=O)N[C@H]2C(=O)N[C@H]3C(=O)N[C@H](C(=O)N[C@H](C(=O)O)c4cc(O)cc(O)c4-c4cc3ccc4O)[C@H](O)c3ccc(c(Cl)c3)Oc3cc2cc(c3O[C@@H]2O[C@H](CO)[C@@H](O)[C@H](O)[C@H]2O[C@H]2C[C@](C)(N)[C@H](O)[C@H](C)O2)Oc2ccc(cc2Cl)[C@H]1O [Vancomycin, vancomycin]	–	–	–	–	–	–	–	–	–	–	–	–	–	–	–	–	–	–	–	–	MIC [11]: 2 µg/mL (≈ 1.38 µM); MIC ([12]; Staphylococcus aureus, MRSA, read-out: MIC (with ibuprofen)): 1 µg/mL; FIC index ([12]; combination with ibuprofen, <1 synergistic): < 1; MIC (with ibuprofen) ([12]; with 50 μg/mL of ibuprofen): 1 (50) μg/mL
CC(C)(O/N=C(\C(=O)N[C@@H]1C(=O)N2C(C(=O)[O-])=C(C[n+]3ccccc3)CS[C@H]12)c1csc(N)n1)C(=O)O [Ceftazidime, ceftazidime]	significantly increased	16 (≈ 29.3 µM)	4	4 (50) μg/mL	–	–	–	–	–	–	–	–	–	–	–	–	–	–	–	–	CFU counts ([7]; 2 or 4 μg/mL ceftazidime with 50 or 100 μg/mL ibuprofen vs ceftazidime alone): decreased significantly
O=C(O)Cc1ccccc1Nc1c(Cl)cccc1Cl [DF, diclofenac]	–	–	–	–	1.31	4.73	1.31	1.16	4.48	1.41	2.00	17.34	2.20	1.73 ± 0.18	1.48 ± 0.01	46.67	1.88	0.30	0.16	34.5 ± 2.3	Moisture content [10]: 0.78 ± 0.18%
